Patent US6326139A (priority 1997, dated 2001)

Legend:
[1] = in vivo; cited from earlier work
AChE (E5) = AChE (E5) (Homo sapiens, UniProt P22303)
Protocol: (§1) Single-step enrichment for AChE or BuChE on immobilized antibody: Monoclonal mouse anti-human serum BuChE (53-4) or anti-human ACHE (101-1) antibodies (Liao et al., 1993), were adsorbed to microliter plates (Nunc, Roskilde, Denmark) at […] in 0.1 M carbonate buffer, pH 9.6, for at least four hours at room temperature. Plates were then washed three times in PBS-T buffer (144 mM NaCl, 20 mM Na phosphate, pH 7.4, 0.05% Tween-20). Free binding sites on the well surface of the microliter plate were blocked with PBS-T for one hour at 37° C. […] Microinjected oocyte homogenates containing the enzyme were then added at a dilution of 1:20 in PBS-T or at a concentration of 100 mIU/ml in PBS-T for at least 3 hours at room temperature with agitation. Plates were washed three times with PBS-T before use. Inactivation was performed at pH 7.4 in order to facilitate comparison with similar studies in the literature.
(§2) and 1 μM DFP. The pseudo-first order rate constant for reactivation,
(§3) ^a True first order rate constants for reactivation (kr) and […]

AChE (E6) = AChE (E6) (Homo sapiens, UniProt P22303)
AChE (E6), sequence (P22303 32-614): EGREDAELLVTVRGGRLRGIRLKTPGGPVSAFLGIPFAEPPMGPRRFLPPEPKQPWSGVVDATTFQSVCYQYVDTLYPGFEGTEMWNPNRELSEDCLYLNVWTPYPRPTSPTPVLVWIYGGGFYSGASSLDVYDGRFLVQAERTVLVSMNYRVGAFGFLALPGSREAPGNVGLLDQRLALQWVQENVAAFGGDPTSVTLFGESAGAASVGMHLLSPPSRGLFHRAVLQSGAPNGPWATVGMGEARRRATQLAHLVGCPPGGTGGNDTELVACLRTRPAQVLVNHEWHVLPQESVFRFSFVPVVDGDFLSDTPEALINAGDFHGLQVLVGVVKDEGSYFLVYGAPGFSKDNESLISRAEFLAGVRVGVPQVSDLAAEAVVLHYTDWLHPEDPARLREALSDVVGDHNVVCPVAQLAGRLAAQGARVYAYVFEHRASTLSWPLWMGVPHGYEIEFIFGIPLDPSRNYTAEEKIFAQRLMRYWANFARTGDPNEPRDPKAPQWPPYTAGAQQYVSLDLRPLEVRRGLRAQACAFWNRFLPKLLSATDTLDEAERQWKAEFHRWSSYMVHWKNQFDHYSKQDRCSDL
Protocol: as §1, §2, §3

BuChE F^329 D = experiment: Reactivation by PAM of DFP-inhibited enzyme; type: biochemical, human; details: 1 mM PAM; pseudo-first order
Protocol: (§4) and 1 μM DFP. The pseudo-first order rate constant for reactivation, […]

BuChE F^329 R = experiment: Reactivation by PAM of DFP-inhibited enzyme; type: biochemical, human; details: 1 mM PAM; pseudo-first order
Protocol: as §4

BuChE F^329 Q = experiment: Reactivation by PAM of DFP-inhibited enzyme; type: biochemical, human; details: 1 mM PAM; pseudo-first order
Protocol: as §4

BuChE F^329 C = experiment: Reactivation by PAM of DFP-inhibited enzyme; type: biochemical, human; details: 1 mM PAM; pseudo-first order
Protocol: as §4

BuChE L^286 Q = experiment: Reactivation by PAM of DFP-inhibited enzyme; type: biochemical, human; details: 1 mM PAM; pseudo-first order
Protocol: as §4

BuChE L^286 D = experiment: Reactivation by PAM of DFP-inhibited enzyme; type: biochemical, human; details: 1 mM PAM; pseudo-first order
Protocol: as §4

BuChE L^286 R = experiment: Reactivation by PAM of DFP-inhibited enzyme; type: biochemical, human; details: 1 mM PAM; pseudo-first order
Protocol: as §4

[2] = system: BuChE D^70 G + Y^114 H + S^425 P; experiment: Reactivation by PAM of DFP-inhibited enzyme; type: biochemical, human
Protocol: as §4

BuChE S^425 P = experiment: Reactivation by PAM of DFP-inhibited enzyme; type: biochemical, human; details: 1 mM PAM; pseudo-first order
Protocol: as §4

BuChE D^70 G + Y^114 H = experiment: Reactivation by PAM of DFP-inhibited enzyme; type: biochemical, human; details: 1 mM PAM; pseudo-first order
Protocol: as §4

BuChE D^70 G + S^425 P = experiment: Reactivation by PAM of DFP-inhibited enzyme; type: biochemical, human; details: 1 mM PAM; pseudo-first order
Protocol: as §4

BuChE D^70 G = experiment: Reactivation by PAM of DFP-inhibited enzyme; type: biochemical, human
Protocol: as §4

BuChE L^286 K = BuChE L^286 K (Homo sapiens, UniProt P06276, L314K); experiment: Reactivation by PAM of DFP-inhibited enzyme; type: biochemical
BuChE L^286 K, sequence (P06276 29-602 L314K limits assumed): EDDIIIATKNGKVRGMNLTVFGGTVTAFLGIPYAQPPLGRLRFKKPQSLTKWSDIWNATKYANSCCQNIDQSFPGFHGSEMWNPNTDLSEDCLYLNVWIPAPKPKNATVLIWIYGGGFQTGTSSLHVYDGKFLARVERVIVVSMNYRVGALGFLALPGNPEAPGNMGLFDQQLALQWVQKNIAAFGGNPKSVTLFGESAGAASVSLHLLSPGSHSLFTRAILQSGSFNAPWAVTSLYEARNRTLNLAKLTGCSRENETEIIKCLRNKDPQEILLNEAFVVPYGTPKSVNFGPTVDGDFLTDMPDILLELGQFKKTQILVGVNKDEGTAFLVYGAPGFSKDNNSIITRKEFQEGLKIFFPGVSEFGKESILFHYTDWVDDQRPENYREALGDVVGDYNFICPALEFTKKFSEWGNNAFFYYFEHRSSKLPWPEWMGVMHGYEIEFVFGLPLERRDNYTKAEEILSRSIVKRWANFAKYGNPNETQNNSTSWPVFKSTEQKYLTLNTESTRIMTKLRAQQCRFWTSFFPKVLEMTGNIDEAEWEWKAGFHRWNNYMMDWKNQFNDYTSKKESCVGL
Protocol: as §4

[3] = system: Chimera of human AChE and BuChE; experiment: Reactivation by PAM of DFP-inhibited enzyme; type: biochemical
Protocol: as §4

DIP-BuChE = molecular target: T1, DIP-BuChE (Homo sapiens, UniProt P06276); experiment: Reactivation by PAM of DFP-inhibited enzyme; type: biochemical
T1 construct: made in house; host or cells: Xenopus oocytes (microinjected in vitro transcribed mRNA)
T1 sequence (P06276 29-602): as the sequence (P06276 29-602 L314K limits assumed) above, with K286L counted along it
Protocol: as §4

[4] = system: D^70 G BuChE in tandem with one or two additional natural mutations; experiment: Reactivation by 2-PAM of DFP-inactivated enzyme; type: biochemical, human
Protocol: Single-step enrichment for AChE or BuChE on immobilized antibody: Monoclonal mouse anti-human serum BuChE (53-4) or anti-human ACHE (101-1) antibodies (Liao et al., 1993), were adsorbed to microliter plates (Nunc, Roskilde, Denmark) at 0.5 pg/ml in 0.1 M carbonate buffer, pH 9.6, for at least four hours at room temperature. Plates were then washed three times in PBS-T buffer (144 mM NaCl, 20 mM Na phosphate, pH 7.4, 0.05% Tween-20). Free binding sites on the well surface of the microliter plate were blocked with PBS-T for one hour at 37° C. […] Microinjected oocyte homogenates containing the enzyme were then added at a dilution of 1:20 in PBS-T or at a concentration of 100 mIU/ml in PBS-T for at least 3 hours at room temperature with agitation. Plates were washed three times with PBS-T before use. Inactivation was performed at pH 7.4 in order to facilitate comparison with similar studies in the literature.

[5] = true first order, 0.1 to 0.6 mM PAM

AChE (E5), sequence (P22303-4 with tags, fused parts or gaps limits assumed): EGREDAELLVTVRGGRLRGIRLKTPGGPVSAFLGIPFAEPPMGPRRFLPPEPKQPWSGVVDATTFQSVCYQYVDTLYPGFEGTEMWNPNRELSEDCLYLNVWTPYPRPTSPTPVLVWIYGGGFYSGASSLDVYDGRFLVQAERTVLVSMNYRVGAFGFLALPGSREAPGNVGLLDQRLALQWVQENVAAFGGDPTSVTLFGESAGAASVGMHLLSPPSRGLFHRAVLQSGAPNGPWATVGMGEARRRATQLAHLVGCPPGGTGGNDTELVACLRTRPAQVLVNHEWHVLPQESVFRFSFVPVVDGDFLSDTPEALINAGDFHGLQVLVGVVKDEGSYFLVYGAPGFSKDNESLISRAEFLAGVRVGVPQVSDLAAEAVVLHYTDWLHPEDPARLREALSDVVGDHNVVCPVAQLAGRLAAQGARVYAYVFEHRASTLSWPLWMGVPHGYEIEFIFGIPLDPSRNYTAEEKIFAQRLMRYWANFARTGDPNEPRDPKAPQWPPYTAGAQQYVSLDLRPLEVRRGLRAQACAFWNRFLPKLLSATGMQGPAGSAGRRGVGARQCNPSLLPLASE

For `CCN(CC)C(=O)c1cccc(C)c1` [DEET], which “toxicity of anti-ChEs” value [1] is on record?
The value was “amplify the toxicity of anti-ChEs”.

Which “k'r × 10^3” value (AChE (E5); 1 mM PAM, pseudo-first order) does the source give for `C[n+]1ccccc1C=NO` [PAM, Pyridine-2-aldoxime methiodide] here?
The value was 8 ± 3 min^-1.

What about the “kr × 10^3” value (AChE (E5); [5]) of the same compound?
Its value is 10 ± 5 min^-1.

What about the “k'r × 10^3” value (AChE (E6); 1 mM PAM, pseudo-first order) of the same compound?
The value was 6 ± 2 min^-1.

What about the “kr × 10^3” value (AChE (E6); [5]) of the same compound?
Its value is 7 ± 3 min^-1.

And the “k'r × 10^3” value (BuChE F^329 D)?
Its value is 8 ± 1 min^-1.

What about the “k'r × 10^3” value (BuChE F^329 R) of the same compound?
The value was 43 min^-1.

What about the “k'r × 10^3” value (BuChE F^329 Q) of the same compound?
The value was 44 ± 15 min^-1.

And the “k'r × 10^3” value (BuChE F^329 C)?
The value was 14 ± 2 min^-1.

What about the “k'r × 10^3” value (BuChE L^286 Q) of the same compound?
Its value is 120 ± 20 min^-1.

What about the “k'r × 10^3” value (BuChE L^286 D) of the same compound?
Its value is 120 ± 30 min^-1.

What about the “k'r × 10^3” value (BuChE L^286 R) of the same compound?
The value was 6 ± 3 min^-1.

And the “k'r × 10^3” value ([2]; 1 mM PAM, pseudo-first order)?
The value was 4 ± 1 min^-1.

What about the “decrease in the rate of reactivation” value ([2]; all three mutations) of the same compound?
Its value is 40 fold.

What about the “k'r × 10^3” value (BuChE S^425 P) of the same compound?
The value was 134 ± 8 min^-1.

And the “k'r × 10^3” value (BuChE D^70 G + Y^114 H)?
Its value is 12 ± 5 min^-1.

What about the “k'r × 10^3” value (BuChE D^70 G + S^425 P) of the same compound?
Its value is 11 min^-1.

What about the “k'r × 10^3” value (BuChE D^70 G; 1 mM PAM, pseudo-first order) of the same compound?
Its value is 32 ± 4 min^-1.

What about the “reactivation rate lower than wild-type” value (BuChE D^70 G; D^70 G, DFP-inactivated) of the same compound?
Its value is 5 fold.

What about the “k'r × 10^3” value (BuChE L^286 K; 1 mM PAM, pseudo-first order) of the same compound?
Its value is 4 ± 1 min^-1.

And the “reduction in the pseudo-first order rate constant for reactivation” value (BuChE L^286 K; L^286 K)?
Its value is 40 fold.

What about the “kr × 10^3” value (BuChE L^286 K; [5]) of the same compound?
Its value is 35 ± 27 min^-1.

What about the “k'r × 10^3” value ([3]; 1 mM PAM, pseudo-first order) of the same compound?
Its value is 40 ± 18 min^-1.

And the “reactivation rate constant lower than native BuChE” value ([3]; chimera)?
Its value is 5 fold.

What about the “kr × 10^3” value [3, 5] of the same compound?
Its value is 48 ± 20 min^-1.

And the “k'r × 10^3” value (DIP-BuChE; 1 mM PAM, pseudo-first order)?
The value was 150 ± 30 min^-1.

What about the “pseudo-first order reactivation rate constant higher than for either form of AChE” value (DIP-BuChE; DFP-inhibited BuChE) of the same compound?
The value was 25 fold.

And the “kr × 10^3” value (DIP-BuChE; [5])?
The value was 220 ± 60 min^-1.

What about the “rate of reactivation lower than wild type” value [4] of the same compound?
Its value is ≤ 40 fold.
